# Data reported in patent US20150148311A1, “NON-SYSTEMIC TGR5 AGONISTS” (Ardelyx, Inc., priority 2011, published 2015).
# Legend:
# [1] = biological target: T1, endogenously expressed TGR5 in NCI H716 (Homo sapiens, UniProt Q8TDU6); assay: Cell-based TGR5 assay, NCI-H716 cells endogenously expressing human TGR5, cAMP by HTRF; conditions: 30 min at 37 C, 22 nM to 50 μM, read-out: pEC50 endogenously expressed TGR5 in NCI H716 (converted)
# T1 construct: human caecum carcinoma cell line NCI-H716 which endogenously expresses human TGR5; endogenous in cells; host or cells: NCI-H716
# T1 sequence (Q8TDU6 1-330): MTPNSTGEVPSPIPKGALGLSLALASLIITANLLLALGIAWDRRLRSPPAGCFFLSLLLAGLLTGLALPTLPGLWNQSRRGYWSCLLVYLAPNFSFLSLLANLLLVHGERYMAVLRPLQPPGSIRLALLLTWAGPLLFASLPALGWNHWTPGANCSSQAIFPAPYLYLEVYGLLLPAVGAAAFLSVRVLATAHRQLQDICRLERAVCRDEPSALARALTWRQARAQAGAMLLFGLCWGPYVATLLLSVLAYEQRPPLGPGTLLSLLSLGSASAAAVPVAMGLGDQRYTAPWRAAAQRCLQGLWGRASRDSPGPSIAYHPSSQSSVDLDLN
# Protocol: Two primary cell based screens were performed. The first utilized HEK293 cells stably transfected to heterologously express human TGR5. The second screen used the human caecum carcinoma cell line NCI-H716 which endogenously expresses human TGR5. In both assays, cells are treated with candidate TGR5 activators and assessed for the increased intercellular levels of cAMP. […]
# (§1) TGR5-mediated cAMP generation was measured using a homogeneous time resolved fluorescence (HTRF) detection method (Cisbio). Test compounds were dissolved in DMSO to a final concentration of 10 mM. Serial 3-fold dilutions of the stock solution were made in DMSO, and these solutions were diluted 100-fold into Hanks Balanced Salt Solution supplemented with 10 mM HEPES pH 7.4 and 0.5 mM isobutyl methylxanthine (IBMX). Prior to assay, culture medium was replaced with fresh medium, and test compounds diluted in HBSS/HEPES/IBMX were added to the cells and incubated at 37° C. for 30 minutes.
# (§2) Following incubation with test compounds, cAMP was detected through the successive addition of cAMP labeled with the modified allophyocyanin dye d2 (cAMP-d2) and cryptate-labeled anti-cAMP in lysis buffer, and reading HTRF per the manufacturer's instructions. A standard curve was used to convert the raw HTRF data into [cAMP].
# [2] = biological target: T2, human TGR5 (Homo sapiens, UniProt Q8TDU6); assay: Cell-based TGR5 assay, HEK293 cells stably expressing human TGR5, cAMP by HTRF; conditions: HEK293 cells stably expressing human TGR5, 30 min at 37 C, 0.05 nM to 10 μM, read-out: pEC50 Human TGR5 (converted)
# T2 construct: expressed in transfected cells
# T2 sequence (Q8TDU6 1-330): T1 sequence (Q8TDU6 1-330)
# Protocol: Two primary cell based screens were performed. The first utilized HEK293 cells stably transfected to heterologously express human TGR5. The second screen used the human caecum carcinoma cell line NCI-H716 which endogenously expresses human TGR5. In both assays, cells are treated with candidate TGR5 activators and assessed for the increased intercellular levels of cAMP.
# HEK293 cells were transfected with a vector that expresses a gene encoding human TGR5, and a stable cell line was isolated using drug selection following standard techniques. Cells were grown overnight at 37° C./5% CO2 prior to assay.
# as §1, §2
SMILES,EC50 [1] [nM],EC50 [2] [nM]
"CCN1CC(OCc2cc(Cl)ccc2Cl)(C(=O)N2CCN(C3CC3)c3ccccc32)C1 [Example 52, (4-cyclopropyl-3,4-dihydroquinoxalin-1(2H)-yl)(3-(2,5-dichlorobenzyloxy)-1-ethylazetidin-3-yl)methanone]",1260 to 50100,126 to 1000
CN(C[C@H](O)[C@@H](O)[C@H](O)[C@H](O)CO)C(=O)NCCOc1cc(Cl)c(CNC2(C(=O)N3CCN(C4CC4)c4ccccc43)CC2)cc1Cl [Example 185],1260 to 50100,126 to 1000
CC(C(=O)N1CCN(C2CC2)c2ccccc21)N1CCc2ccc(Cl)cc2C1 (stereo not drawn) [Example 244],1260 to 50100,1260 to 50100
"O=C([C@@H]1CCCN1Cc1cc(Cl)ccc1C(F)(F)F)N1CCN(C2CC2)c2ccccc21 [Example 46, (S)-(1-(5-chloro-2-(trifluoromethyl)benzyl)pyrrolidin-2-yl)(4-cyclopropyl-3,4-dihydroquinoxaline-1(2H)-yl)methanone]",126 to 1000,< 100
"CN(C[C@H](O)[C@@H](O)[C@H](O)[C@H](O)CO)C(=O)NCCCc1cc(Cl)c(CNC2(C(=O)N3CCN(C4CC4)c4ccccc43)CC2)cc1Cl [Example 93, 3-(3-(2,5-dichloro-4-((1-(4-cyclopropyl-1,2,3,4-tetrahydroquinoxaline-1-carbonyl)cyclopropylamino)methyl)phenyl)propyl)-1-methyl-1-((2S,3R,4R,5R)-2,3,4,5,6-pentahydroxyhexyl)urea]",126 to 1000,126 to 1000
"CC(c1cc(Cl)ccc1Cl)N1CCC[C@H]1C(=O)N1CCN(C2CC2)c2ccccc21 (single isomer, unassigned) [Example 67]",1260 to 50100,1260 to 50100
"COc1ccccc1N(C)C(=O)C1(NCc2cc(Cl)ccc2Cl)CC1 [Example 38, 1-(2,5-dichlorobenzylamino)-N-(2-methoxyphenyl)-N-methylcyclopropanecarboxamide]",< 100,< 100
CN(C[C@H](O)[C@@H](O)[C@@H](O)[C@H](O)CO)C(=O)NCCCc1cc(Cl)c(CNC2(C(=O)N3CCN(C4CC4)c4ccccc43)CC2)cc1Cl [Example 214],126 to 1000,126 to 1000
"O=C(N1CCN(C2CC2)c2ccccc21)C1(OCc2cc(Cl)ccc2Cl)CCOCC1 [Example 79, 1-cyclopropyl-4-([4-[(2,5-dichlorophenyl)methoxy]oxan-4-yl]carbonyl)-1,2,3,4-tetrahydroquinoxaline]",1260 to 50100,126 to 1000
COc1cc(Cl)c(CNC2(C(=O)N3CCN(C4CC4)c4ccccc43)CC2)cc1Cl [Example 256],126 to 1000,126 to 1000
"CN(C[C@H](O)[C@@H](O)[C@@H](O)[C@H](O)CO)C(=O)CCc1ccc(Cl)c(CNC2(C(=O)N3CCN(C4CC4)c4ccccc43)CC2)c1 [Example 71, 3-(4-chloro-3-(((1-(4-cyclopropyl-1,2,3,4-tetrahydroquinoxaline-1-carbonyl)cyclopropyl)amino)methyl)phenyl)-N-methyl-N-((2S,3R,4S,5R)-2,3,4,5,6-pentahydroxyhexyl)propanamide]",126 to 1000,126 to 1000
"O=C(N1CCN(C2CC2)c2ccccc21)C1(OCc2cc(Cl)ccc2C(F)(F)F)CC1 [Example 42, (1-(5-chloro-2-(trifluoromethyl)benzyloxy)cyclopropyl)(4-cyclopropyl-3,4-dihydroquinoxalin-1(2H)-yl)methanone]",126 to 1000,126 to 1000
"CN1CC(OCc2cc(Cl)ccc2Cl)(C(=O)N2CCN(C3CC3)c3ccccc32)C1 [Example 51, (4-cyclopropyl-3,4-dihydroquinoxalin-1(2H)-yl)(3-(2,5-dichlorobenzyloxy)-1-methylazetidin-3-yl)methanone]",1260 to 50100,126 to 1000
O=C(N1CCN(C2CC2)c2ccccc21)C1(OCc2cc(Cl)ccc2Cl)CCCCC1 [Example 242],> 50100,126 to 1000
"O=C(N1CCN(C2CC2)c2ccccc21)C1(OCc2cc(Cl)ccc2Cl)COC1 [Example 179, (4-cyclopropyl-3,4-dihydroquinoxalin-1(2H)-yl)(3-(2,5-dichlorobenzyloxyl)oxetan-3-yl)methanone]",126 to 1000,< 100
"CC(C)N1CC(OCc2cc(Cl)ccc2Cl)(C(=O)N2CCN(C3CC3)c3ccccc32)C1 [Example 53, (4-cyclopropyl-3,4-dihydroquinoxalin-1(2H)-yl)(3-(2,5-dichlorobenzyloxy)-1-isopropylazetidin-3-yl)methanone]",1260 to 50100,1260 to 50100
"CN(C[C@H](O)[C@@H](O)[C@H](O)[C@H](O)CO)C(=O)NCCCc1ccc(Cl)c(CNC2(C(=O)N3CCN(C4CC4)c4ccccc43)CC2)c1 [Example 69, 3-(3-(4-chloro-3-(((1-(4-cyclopropyl-1,2,3,4-tetrahydroquinoxaline-1-carbonyl)cyclopropyl)amino)methyl)phenyl)propyl)-1-methyl-1-((2S,3R,4R,5R)-2,3,4,5,6-pentahydroxyhexyl)urea]",1260 to 50100,1260 to 50100
"O=C(O)CCc1ccc(Cl)c(CNC2(C(=O)N3CCN(C4CC4)c4ccccc43)CC2)c1 [Example 59, 3-(4-chloro-3-(((1-(4-cyclopropyl-1,2,3,4-tetrahydroquinoxaline-1-carbonyl)cyclopropyl)amino)methyl)phenyl)propanoic acid]",1260 to 50100,126 to 1000
Cc1cccc(CC2CCCN2C(=O)N2CCN(C3CC3)c3ccccc32)c1 (stereo not drawn) [Example 58],1260 to 50100,1260 to 50100
CN(C[C@H](O)[C@@H](O)[C@H](O)[C@H](O)CO)C(=O)NCCCCc1ccc(Cl)c(CNC2(C(=O)N3CCN(C4CC4)c4ccccc43)CC2)c1 [Example 213],1260 to 50100,126 to 1000
Cc1ccc(Cl)c(CN2CCC[C@H]2C(=O)N2CCN(C3CC3)c3ccccc32)c1F [Example 245],1260 to 50100,1260 to 50100
O=C(N1CCN(C2CC2)c2ccccc21)C1(OCc2c(Cl)cccc2Cl)CC1 [Example 247],1260 to 50100,1260 to 50100
COc1ccc(COC2(C(=O)N3CCN(C4CC4)c4ccccc43)CC2)c(Cl)c1 [Example 246],1260 to 50100,126 to 1000
"NCCCc1ccc(Cl)c(CNC2(C(=O)N3CCN(C4CC4)c4ccccc43)CC2)c1 [Example 68, (1-((5-(3-aminopropyl)-2-chlorobenzyl)amino)cyclopropyl)(4-cyclopropyl-3,4-dihydroquinoxalin-1(2H)-yl)methanone]",1260 to 50100,1260 to 50100
CN(C[C@H](O)[C@@H](O)[C@H](O)[C@H](O)CO)C(=O)NCCCc1ccc(Cl)c(CN2CSC[C@H]2C(=O)N2CCN(C3CC3)c3ccccc32)c1 [Example 217],1260 to 50100,126 to 1000
"CS(=O)(=O)N1CC(OCc2cc(Cl)ccc2Cl)(C(=O)N2CCN(C3CC3)c3ccccc32)C1 [Example 55, (4-cyclopropyl-3,4-dihydroquinoxalin-1(2H)-yl)(3-(2,5-dichlorobenzyloxy)-1-(methylsulfonyl)azetidin-3-yl)methanone]",1260 to 50100,126 to 1000
"CC(=O)N1CC(OCc2cc(Cl)ccc2Cl)(C(=O)N2CCN(C3CC3)c3ccccc32)C1 [Example 54, 1-(3-(4-cyclopropyl-1,2,3,4-tetrahydroquinoxaline-1-carbonyl)-3-(2,5-dichlorobenzyloxyl)azetidin-1-yl)ethanone]",1260 to 50100,126 to 1000
"N#Cc1cccc(COC2(C(=O)N3CCN(C4CC4)c4ccccc43)CC2)c1 [Example 45, 3-((1-(4-cyclopropyl-1,2,3,4-tetrahydroquinoxaline-1-carbonyl)cyclopropoxy)methyl)benzonitrile]",1260 to 50100,126 to 1000
O=C(NCCCc1cc(Cl)c(CNC2(C(=O)N3CCN(C4CC4)c4ccccc43)CC2)cc1Cl)NCCOCCOCCNC(=O)NCCCc1cc(Cl)c(CNC2(C(=O)N3CCN(C4CC4)c4ccccc43)CC2)cc1Cl [Example 212],1260 to 50100,1260 to 50100
"O=C(O)CCc1cc(Cl)c(OCC2(C(=O)N3CCN(C4CC4)c4ccccc43)CC2)cc1Cl [Example 33, 3-[2,5-dichloro-4-([1-[(4-cyclopropyl-1,2,3,4-tetrahydroquinoxalin-1-yl)carbonyl]cyclopropyl]methoxy)phenyl]propanoic acid]",1260 to 50100,1260 to 50100
